From patent US10093696B2, “Nitric oxide donating carnosine compounds” (NICOX SCIENCE IRELAND, priority 2014, dated 2018)

Legend:
[1] = test system: hypertonic saline-induced IOP increase in rabbits; assay: Intraocular pressure (IOP) lowering activity in hypertonic saline-induced IOP increase in rabbits; format: in vivo, New Zealand White rabbits; settings: for IOP reduction after single application (in words): compared to ISMN and timolol; for IOP change 60 minutes / IOP change 120 minutes / IOP change 240 minutes: single topical application
Method: The present study evaluated the intraocular pressure lowering effect of single applications of two compounds of the inventions (compound (1a) and compound (4a)) and two reference compounds at the same concentrations and in rabbits with induced IOP increase.
Adult male New Zealand White rabbits weighting 1.8-2.0 Kg were used in the experiments.
The transient increase in IOP was induced by the injection of 0.1 ml of hypertonic saline solution (5%) into the vitreous bilaterally (Krauss et al., 2011, Orihashi et al., 2005).
(§1) IOP was measured using a Tono-Pen XL prior to hypertonic saline injection (basal) and at 30, 60, 120 and 240 min thereafter. Vehicle (5% cremophor-EL; 0.3% DMSO; 0.2 mg/ml Benzalkonium chloride in PBS pH 6.0) or compound (1.0%) was instilled as eye drops immediately after hypertonic saline injection. Eyes were randomly assigned to different treatment groups. Vehicle and compounds were directly instilled into the conjunctiva pocket at the desired doses. One drop of 0.4% oxybuprocaine hydrochloride (Novesine, Sandoz) was instilled in each eye immediately before each set of pressure measurements.
Results are reported in Table 1 and they are expressed as IOP change (at 60, 120 and 240 minutes following topical administration) versus vehicle and versus IOP at basal before hypertonic saline injection.
Hypertonic Saline-Induced IOP Increase Rabbit Model
as §1, with “compound (9)” for “compound”, “compound (9)” for “compounds”
Experimental data are reported in Table 3 and they are expressed as IOP change (at 60, 120 and 240 minutes following topical administration) versus vehicle and versus IOP at basal before hypertonic saline injection
The hypotensive effects of compound (9) and of ISMN and timolol were evaluated using the same transient ocular hypertensive rabbit model, see Example 9, but in different groups of hypertensive rabbits.

[2] = test system: ocular normotensive rabbits; assay: Intraocular pressure (IOP) lowering activity in ocular normotensive New Zealand White rabbits; format: in vivo, New Zealand White (NZW) rabbits; settings: 1% eye drops; for duration of IOP reduction after single application (in words): compared to the reference compound; for IOP change 60 minutes / IOP change 120 minutes / IOP change 180 minutes / IOP change 240 minutes / IOP change 30 minutes / IOP change 300 minutes: single topical application
Method: The present study evaluated the long lasting intraocular pressure lowering effect of single application of two compounds of the inventions (compound (1a) and compound (4a)) with respect to a prior art compound, in an ocular normotensive animal model (rabbit) at the same concentrations.
Adult male New Zealand White (NZW) rabbits weighting 1.8-2.0 Kg were used in the experiments.
(§2) IOP was measured using a pneumatonometer 30 CLASSIC™ before topical application (basal) and at different time points (30, 60, 120, 240 and 300 min) thereafter. Vehicle (5% cremophor-EL; 0.3% DMSO; 0.2 mg/ml bac in PBS pH 6.0) or compound of the invention were instilled as eye drops into the conjunctiva pocket. Eyes were randomly assigned to different treatment groups. One drop of 0.4% oxybuprocaine hydrochloride (Novesine, Sandoz) was instilled in each eye immediately before each set of pressure measurements. Results are reported in Table 2 and they are expressed as IOP change (at 60, 120, 180 and 240 minutes following topical administration) versus vehicle and versus IOP at basal.
Ocular Normotensive Rabbit Model
as §2, with “(9) (1%)” for “of the invention”, “measurements.” for “measurements. Results are reported in Table 2 and they are expressed as IOP change (at 60, 120, 180 and 240 minutes following topical administration) versus vehicle and versus IOP at basal.”
Experimental data are reported in Table 4 and they are expressed as IOP change (at 60, 120, 180 and 240 minutes following topical administration) versus vehicle and versus IOP at basal.
The IOP-lowering effects of compound (9) and of the Reference compound were assessed in the same normotensive rabbit model, see Example 10, but using different groups of […] rabbits.

[3] = Table 1, conc. 1% eye drops, versus vehicle and versus basal IOP
[4] = Table 2, versus vehicle and versus basal IOP
[5] = Table 3, 1% eye drops, versus vehicle and basal, references from different groups of rabbits (Example 9)
[6] = Table 4, versus vehicle and basal, reference from different groups of rabbits (Example 10)

COC(=O)[C@H](Cc1c[nH]cn1)NC(=O)CCNC(=O)CCCCO[N+](=O)[O-].Cl [Compound (1a), (S)-methyl-3-(1H-imidazol-4-yl)-2-(3-(5-(nitrooxy)pentanamido)propanamido)propanoate hydrochloride]
IOP reduction after single application (in words) ([1]; 1% eye drops): significant IOP reduction | IOP change 60 minutes [1, 3]: −11.4 ± 0.8 mmHg | IOP change 120 minutes [1, 3]: −12.9 ± 0.4 mmHg | IOP change 240 minutes [1, 3]: −7.4 ± 0.5 mmHg | duration of IOP reduction after single application (in words) [2]: significantly longer IOP reduction | IOP change 60 minutes [2, 4]: −1.2 ± 1.0 mmHg | IOP change 120 minutes [2, 4]: −1.5 ± 0.9 mmHg | IOP change 180 minutes [2, 4]: −1.9 ± 0.9 mmHg | IOP change 240 minutes [2, 4]: −1.7 ± 1.2 mmHg

O=C(CCCCCO[N+](=O)[O-])NCCC(=O)N[C@@H](Cc1c[nH]cn1)C(=O)O [Compound (4a), (S)-3-(1H-imidazol-4-yl)-2-(3-(6-(nitrooxy)hexanamido)propanamido) propanoic acid 2,2,2-trifluoroacetate]
IOP reduction after single application (in words) ([1]; 1% eye drops): significant IOP reduction | IOP change 60 minutes [1, 3]: −7.6 ± 1.6 mmHg | IOP change 120 minutes [1, 3]: −9.0 ± 1.2 mmHg | IOP change 240 minutes [1, 3]: −5.3 ± 0.6 mmHg | duration of IOP reduction after single application (in words) [2]: significantly longer IOP reduction | IOP change 60 minutes [2, 4]: −1.6 ± 0.4 mmHg | IOP change 120 minutes [2, 4]: −1.5 ± 0.6 mmHg | IOP change 180 minutes [2, 4]: −1.4 ± 0.6 mmHg | IOP change 240 minutes [2, 4]: −0.9 ± 0.6 mmHg

COC(=O)[C@H](Cc1c[nH]cn1)NC(=O)CCNC(=O)CCC[C@@H](CO[N+](=O)[O-])O[N+](=O)[O-] [Compound (9), (S)-methyl 2-(3-((S)-5,6-bis(nitrooxy)hexanamido)propanamido)-3-(1H-imidazol-4-yl)propanoate]
IOP reduction after single application (in words) ([1]; 1% eye drops): significant IOP reduction | IOP change 60 minutes [1, 5]: −7.2 ± 1.0 mmHg | IOP change 120 minutes [1, 5]: −6.4 ± 1.0 mmHg | IOP change 240 minutes [1, 5]: −3.9 ± 0.9 mmHg | duration of IOP reduction after single application (in words) [2]: long lasting IOP-lowering effect | IOP change 30 minutes [2, 6]: −1.6 ± 0.2 mmHg | IOP change 60 minutes [2, 6]: −1.0 ± 0.4 mmHg | IOP change 120 minutes [2, 6]: −1.3 ± 0.2 mmHg | IOP change 180 minutes [2, 6]: −1.3 ± 0.3 mmHg | IOP change 240 minutes [2, 6]: −1.5 ± 0.4 mmHg | IOP change 300 minutes [2, 6]: −1.5 ± 0.4 mmHg

O=[N+]([O-])O[C@@H]1CO[C@H]2[C@@H]1OC[C@@H]2O [ISMN, Isosorbide mononitrate, reference compound]
IOP change 60 minutes [1, 3]: −0.7 ± 2.9 mmHg | IOP change 120 minutes [1, 3]: −6.6 ± 1.8 mmHg | IOP change 240 minutes [1, 3]: −1.2 ± 1.3 mmHg | IOP change 60 minutes [1, 5]: −0.7 ± 2.9 mmHg | IOP change 120 minutes [1, 5]: −6.6 ± 1.8 mmHg | IOP change 240 minutes [1, 5]: −1.2 ± 1.3 mmHg

NCCC(=O)N[C@@H](Cc1c[nH]cn1)C(=O)NC[C@H](CO[N+](=O)[O-])O[N+](=O)[O-].O=C(O)C(F)(F)F [Ref. compound, (R)-3-((S)-2-(3-aminopropanamido)-3-(1H-imidazol-4-yl)propanamido)propane-1,2-diyl dinitrate 2,2,2-trifluoroacetate, reference compound]
IOP change 60 minutes [2, 4]: −0.8 ± 0.6 mmHg | IOP change 120 minutes [2, 4]: −0.3 ± 0.4 mmHg | IOP change 180 minutes [2, 4]: −0.2 ± 0.4 mmHg | IOP change 240 minutes [2, 4]: −0.05 ± 0.6 mmHg | IOP change 30 minutes [2, 6]: −1.0 ± 0.5 mmHg | IOP change 60 minutes [2, 6]: −0.8 ± 0.6 mmHg | IOP change 120 minutes [2, 6]: −0.3 ± 0.4 mmHg | IOP change 180 minutes [2, 6]: −0.2 ± 0.4 mmHg | IOP change 240 minutes [2, 6]: −0.05 ± 0.6 mmHg | IOP change 300 minutes [2, 6]: −0.7 ± 0.4 mmHg

CC(C)(C)NC[C@H](O)COc1nsnc1N1CCOCC1 [Timolol, reference compound]
IOP change 60 minutes [1, 3]: −5.7 ± 1.4 mmHg | IOP change 120 minutes [1, 3]: −8.4 ± 1.2 mmHg | IOP change 240 minutes [1, 3]: 0.2 ± 1.2 mmHg | IOP change 60 minutes [1, 5]: −5.7 ± 1.4 mmHg | IOP change 120 minutes [1, 5]: −8.4 ± 1.2 mmHg | IOP change 240 minutes [1, 5]: 0.2 ± 1.2 mmHg
